Values of other authors as cited in patent US20240158375A1, “COMPOUNDS AND METHODS FOR THE TREATMENT OF OCULAR DISORDERS” (Azura Ophthalmics Ltd., priority 2020, published 2024).

Tests used:
[1] = target: integrin α4 (Homo sapiens, UniProt P05556+P13612); conditions: Ravensberg et al, Allergy (2006) 61, 1097-1103
[2] = tested on: murine DS model; conditions: Invest. Ophthalmol. Vis. Sci. (2015) 56(10), 5888-5895

Chain of integrin α4 (P13612 34-1032, species assumed): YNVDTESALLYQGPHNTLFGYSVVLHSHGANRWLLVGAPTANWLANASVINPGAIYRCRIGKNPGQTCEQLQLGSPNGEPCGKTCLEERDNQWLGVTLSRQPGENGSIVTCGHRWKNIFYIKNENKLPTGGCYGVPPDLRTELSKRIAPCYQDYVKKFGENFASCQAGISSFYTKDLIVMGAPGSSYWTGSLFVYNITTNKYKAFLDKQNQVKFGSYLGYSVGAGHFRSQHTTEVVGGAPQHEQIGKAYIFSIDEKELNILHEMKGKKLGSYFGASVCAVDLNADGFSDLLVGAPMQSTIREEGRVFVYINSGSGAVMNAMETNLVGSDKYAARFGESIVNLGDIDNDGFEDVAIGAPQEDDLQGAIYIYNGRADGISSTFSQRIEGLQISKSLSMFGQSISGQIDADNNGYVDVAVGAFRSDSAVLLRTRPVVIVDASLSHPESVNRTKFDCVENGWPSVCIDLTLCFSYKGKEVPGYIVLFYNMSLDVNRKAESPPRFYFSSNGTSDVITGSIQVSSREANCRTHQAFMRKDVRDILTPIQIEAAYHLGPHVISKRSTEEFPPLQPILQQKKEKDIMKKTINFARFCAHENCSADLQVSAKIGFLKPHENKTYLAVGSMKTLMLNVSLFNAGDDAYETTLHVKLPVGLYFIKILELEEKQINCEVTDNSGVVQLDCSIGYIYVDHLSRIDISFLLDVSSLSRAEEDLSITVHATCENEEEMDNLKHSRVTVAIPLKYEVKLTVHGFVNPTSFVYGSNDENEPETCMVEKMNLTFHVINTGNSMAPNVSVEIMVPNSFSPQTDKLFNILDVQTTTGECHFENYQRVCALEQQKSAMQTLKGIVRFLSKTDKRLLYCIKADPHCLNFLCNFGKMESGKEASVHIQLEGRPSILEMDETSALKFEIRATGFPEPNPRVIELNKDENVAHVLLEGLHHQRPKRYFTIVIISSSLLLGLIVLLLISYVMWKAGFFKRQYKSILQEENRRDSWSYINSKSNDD
Chain of integrin α4 (P05556 21-798, species assumed): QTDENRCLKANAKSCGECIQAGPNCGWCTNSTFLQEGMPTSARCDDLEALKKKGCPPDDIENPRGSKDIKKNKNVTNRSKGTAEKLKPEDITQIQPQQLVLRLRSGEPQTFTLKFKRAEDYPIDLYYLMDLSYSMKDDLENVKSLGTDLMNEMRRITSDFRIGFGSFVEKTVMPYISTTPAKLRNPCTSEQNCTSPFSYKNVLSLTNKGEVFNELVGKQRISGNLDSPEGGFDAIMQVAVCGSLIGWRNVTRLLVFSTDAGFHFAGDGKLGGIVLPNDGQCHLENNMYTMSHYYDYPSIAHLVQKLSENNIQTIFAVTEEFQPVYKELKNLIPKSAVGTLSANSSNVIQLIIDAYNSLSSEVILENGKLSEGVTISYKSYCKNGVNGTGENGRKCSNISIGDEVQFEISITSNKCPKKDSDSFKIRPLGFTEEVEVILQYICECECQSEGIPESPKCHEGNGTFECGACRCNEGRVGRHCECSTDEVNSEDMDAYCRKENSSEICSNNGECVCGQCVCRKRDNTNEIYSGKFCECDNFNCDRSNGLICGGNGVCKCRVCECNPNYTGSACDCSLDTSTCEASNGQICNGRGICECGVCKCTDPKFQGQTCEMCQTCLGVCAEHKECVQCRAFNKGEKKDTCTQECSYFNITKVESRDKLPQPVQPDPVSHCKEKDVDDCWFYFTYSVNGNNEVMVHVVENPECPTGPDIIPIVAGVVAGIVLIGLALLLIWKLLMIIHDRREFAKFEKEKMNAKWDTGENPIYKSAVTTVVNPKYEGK

Cc1ccccc1OCC(=O)N[C@@H](CC(C)C)C(=O)N[C@@H](Cc1ccc(OC(=O)N2CCC(C(N)=O)CC2)cc1)C(=O)O [(S)-3-(4-((4-carbamoylpiperidine-1-carbonyl)oxy)phenyl)-2-((S)-4-methyl-2-(2-(o-tolyloxy)acetamido)pentanamido)propanoic acid]
integrin α4 antagonist activity [1]: potent integrin a4 antagonist
objective signs of dry eye [2]: improvements in objective signs of dry eye
